Data on 18 molecules can be found in patent US8003627B2, “Urokinase inhibitors” (Universiteit Antwerpen, priority 2005, dated 2011).

Like-named read-outs stand apart in the source and are kept apart here. A value given as a limit tells only on which side of the number the result lay.

One test addresses thrombin (Homo sapiens, UniProt P00734). Nature of the test: Selectivity: thrombin inhibition, chromogenic substrate S-2366. In kind it is biochemical. The method, then: (§1) The IC50 values for plasmin, tPA, thrombin and FXa were determined in the same way as for uPA. […] FX is activated with Russel's Viper Venom.
(§2) Approximately 5 mU of enzyme, and 145 μl of buffer. For tPA and thrombin Tris buffer, pH 8.3, for FXa, Tris buffer pH 8.3 with 2.5 mM CaCl2, for plasmin Tris buffer pH 7.4, and for trypsin Tris buffer pH 8.2 was used. The selectivity index was calculated as (IC50 Enzyme X)/IC50 uPA, where X is tPA, thrombin, plasmin or FXa.

A further test has as its target tPA (Homo sapiens, UniProt P00750). The test is described as follows: Selectivity: tPA inhibition, chromogenic substrate S-2288. Type of test: biochemical. The conditions noted are these: 1.25 mM substrate, Tris pH 8.3. The method, then: as §1, §2
A further test concerns the target FXa (Homo sapiens, UniProt P00742). The test is described as follows: Selectivity: FXa inhibition, chromogenic substrate S-2772. Type of test: biochemical. The settings on record: for inhibition at 250 µM: read-out: % inhibition at given concentration, FXa. The method, then: as §1, §2
The next test has as its target T1, plasmin (Homo sapiens, UniProt P00747).
T1 construct: uPA mediates the proteolytic cleavage of plasminogen to give plasmin
Nature of the test: Selectivity: plasmin inhibition, chromogenic substrate S-2366. In kind it is biochemical. The method, then:
as §1, §2

For test [1], the target named is T2, uPA (Homo sapiens, UniProt P00749). The test is described as follows: biochemical. Type of test: biochemical. On the set-up: purchased Sigma-Aldrich. The method, then:
The substrate was obtained from Chromogenix. The human enzyme was obtained from Sigma-Aldrich, the mouse uPA was obtained from Molecular Innovations.Inc (USA). […] A 50 mM Tris buffer, pH 8.8, was used. […] Activity measurements were routinely performed in duplicate. […] IC50 values were obtained by fitting the data with the 4 parameter logistics equation using Grafit 5. v=(vrange)/(1+exp(s*ln(abs(I0/IC50))))+back s: slope factor back: background v: rate I0: inhibitor concentration range: the fitted uninhibited value minus the background.
The equation assumes that y falls with increasing x.
(§3) Inhibitor stock solutions were prepared in DMSO and stored at −20° C. […] For a simple pseudo-first-order inactivation process, the activity after incubation with inhibitor (vi) varies with the inhibitor concentration (i) as described in the following equation: vi=v0·e^−kit, where v0 is the activity in absence of inhibitor, k is the second-order rate constant of inactivation, and t is the time.

A further test concerns the target T3, trypsin (Bos taurus, UniProt P00760).
T3 sequence (P00760 24-246): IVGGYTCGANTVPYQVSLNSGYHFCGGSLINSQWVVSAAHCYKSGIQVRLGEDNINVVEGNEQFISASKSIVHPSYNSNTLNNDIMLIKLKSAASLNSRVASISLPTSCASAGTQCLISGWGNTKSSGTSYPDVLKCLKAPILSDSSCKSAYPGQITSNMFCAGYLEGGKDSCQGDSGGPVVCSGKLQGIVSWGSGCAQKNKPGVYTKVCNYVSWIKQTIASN
The test is described as follows: Selectivity: trypsin inhibition, chromogenic substrate BAPNA. The settings on record: 425 μM substrate, Tris pH 8.2. Type of test: biochemical. The method, then:
as §1, §2

The target in test [2] is T2, uPA. Type of test: biochemical. The settings on record: apparent second order rate constant, 250 μM substrate. Further details: purchased Sigma-Aldrich. The method, then: as §3
The target of test [3] is T2, uPA. The conditions noted are these: Tamura et al. 2000; cited from earlier work.
[4] abbreviates: 580 μM substrate, Tris pH 8.3, read-out: IC50 (μM) Thrombin.
[5] abbreviates: 522 μM substrate, Tris pH 8.3 with […] CaCl2, read-out: IC50 (μM) FXa.
Where [6] appears, read: 580 μM substrate, Tris pH 7.4, read-out: IC50 (μM) Plasmin.
[7] abbreviates: 15-min pre-incubation at 37° C, 250 μM S-2444, Tris pH 8.8, read-out: IC50 (nM) uPA.

tPA, sequence (P00750 36-562, species assumed): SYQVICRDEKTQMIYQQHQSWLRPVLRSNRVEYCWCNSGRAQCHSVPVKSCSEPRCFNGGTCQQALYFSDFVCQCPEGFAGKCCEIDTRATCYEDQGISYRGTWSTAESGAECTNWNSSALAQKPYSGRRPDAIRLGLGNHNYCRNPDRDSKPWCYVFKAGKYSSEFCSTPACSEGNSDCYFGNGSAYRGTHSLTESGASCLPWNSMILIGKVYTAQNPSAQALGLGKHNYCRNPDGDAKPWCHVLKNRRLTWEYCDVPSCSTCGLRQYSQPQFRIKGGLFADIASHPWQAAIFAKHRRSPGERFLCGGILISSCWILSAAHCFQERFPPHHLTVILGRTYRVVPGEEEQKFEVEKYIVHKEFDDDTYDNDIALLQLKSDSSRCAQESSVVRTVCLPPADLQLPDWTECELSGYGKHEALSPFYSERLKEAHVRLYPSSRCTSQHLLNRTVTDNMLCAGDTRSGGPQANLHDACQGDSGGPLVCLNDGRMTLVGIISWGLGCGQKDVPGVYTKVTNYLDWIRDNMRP
T1 sequence (P00747 581-810 limits assumed, species assumed): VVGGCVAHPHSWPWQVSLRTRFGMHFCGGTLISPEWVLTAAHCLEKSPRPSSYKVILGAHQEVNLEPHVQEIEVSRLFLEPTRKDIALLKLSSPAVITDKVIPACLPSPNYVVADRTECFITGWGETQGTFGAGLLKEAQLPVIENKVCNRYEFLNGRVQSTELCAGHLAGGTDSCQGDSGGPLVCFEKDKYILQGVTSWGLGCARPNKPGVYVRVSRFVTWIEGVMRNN
T1 sequence (P00747 97-580 partner limits assumed, species assumed): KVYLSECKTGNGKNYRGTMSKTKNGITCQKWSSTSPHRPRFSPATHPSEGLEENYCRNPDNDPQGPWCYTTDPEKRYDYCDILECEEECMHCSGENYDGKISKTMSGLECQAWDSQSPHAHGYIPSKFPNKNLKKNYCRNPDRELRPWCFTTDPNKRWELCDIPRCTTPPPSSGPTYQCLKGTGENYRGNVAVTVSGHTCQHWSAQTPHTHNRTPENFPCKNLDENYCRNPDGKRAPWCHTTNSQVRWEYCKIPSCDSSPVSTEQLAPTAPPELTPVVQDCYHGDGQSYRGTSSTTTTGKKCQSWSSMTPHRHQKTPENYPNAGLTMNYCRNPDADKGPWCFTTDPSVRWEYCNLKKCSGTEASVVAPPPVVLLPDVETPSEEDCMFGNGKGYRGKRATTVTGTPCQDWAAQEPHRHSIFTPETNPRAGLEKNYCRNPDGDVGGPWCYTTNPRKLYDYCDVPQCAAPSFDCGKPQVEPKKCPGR
FXa, sequence (P00742 235-488 limits assumed): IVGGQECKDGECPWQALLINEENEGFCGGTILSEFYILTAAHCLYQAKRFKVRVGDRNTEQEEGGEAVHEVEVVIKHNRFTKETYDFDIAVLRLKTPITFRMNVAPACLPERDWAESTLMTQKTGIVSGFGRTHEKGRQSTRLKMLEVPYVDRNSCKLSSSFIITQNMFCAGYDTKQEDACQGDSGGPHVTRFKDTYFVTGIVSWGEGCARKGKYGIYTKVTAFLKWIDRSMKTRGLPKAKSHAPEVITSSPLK
FXa, sequence (P00742 41-179 partner limits assumed): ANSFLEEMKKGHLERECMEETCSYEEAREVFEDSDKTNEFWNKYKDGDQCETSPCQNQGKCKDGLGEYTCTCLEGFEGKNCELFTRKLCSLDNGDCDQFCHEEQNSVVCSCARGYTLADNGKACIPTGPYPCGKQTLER

By IC50 is commonly meant the midpoint of a concentration-inhibition curve. With `N=C(N)Nc1ccc(CC(NC(=O)OCc2ccccc2)P(=O)(Oc2ccccc2)Oc2ccccc2)cc1` (centres unmarked) [Compound 7b, Diphenyl 1-(benzyloxycarbonylamino)-2-(4-guanidinophenyl)-ethanephosphonate], the half-inhibitory concentration (IC50) on thrombin (setting [4]) came to 2.4 ± 0.4 µM; against tPA, 12 ± 0.8 µM; on FXa (setting [5]), 100 ± 20 µM; on plasmin (setting [6]) it was 3 ± 0.6 µM.
Turning to `N=C(N)Nc1ccc(CC(NC(=O)c2ccccc2)P(=O)(Oc2ccccc2)Oc2ccccc2)cc1` (centres unmarked) [Compound 7c, Diphenyl 1-(benzoylamino)-2-(4-guanidinophenyl)-ethanephosphonate], the IC50 on tPA is 125 µM; on uPA [1] (pH 8.8, read-out: IC50 (nM) uPA) it was 114 ± 11 nM; on FXa, over 250 µM; at plasmin (setting [6]), 14 ± 1 µM.
On to `Cc1ccccc1S(=O)(=O)NC(Cc1ccc(NC(=N)N)cc1)P(=O)(Oc1ccccc1)Oc1ccccc1` (centres unmarked) [Compound 7d, Diphenyl 1-(o-toluenesulfonylamino)-2-(4-guanidinophenyl)-ethanephosphonate], for which the 50% inhibitory concentration (IC50) is 11.9 ± 1.7 µM on thrombin (setting [4]), 7.3 ± 0.5 µM at tPA, 0.17 ± 0.01 µM against trypsin and 17 ± 2 µM on plasmin (setting [6]). For the same molecule, the “% inhibition at given concentration, FXa” value on FXa (at 62 μM) is 59% @.
Consider `CC(C)c1ccc(C(C)C)c(S(=O)(=O)NC(Cc2ccc(NC(=N)N)cc2)P(=O)(Oc2ccccc2)Oc2ccccc2)c1C(C)C` (centres unmarked) [Compound 7f, Diphenyl 1-(2,3,6-tri-isopropylbenzenesulfonyl)amino-2-(4-guanidinophenyl)-ethanephosphonate], for which the “% inhibition at given concentration, Thrombin” value on thrombin (at 250 μM) was 60% @. Further, the half-maximal inhibitory concentration (IC50) was 16 ± 1 µM against tPA, 20 ± 2 µM on FXa (setting [5]), 5.6 ± 0.04 µM against trypsin and about 125 µM on plasmin (setting [6]).
Consider `CS(=O)(=O)NC(Cc1ccc(NC(=N)N)cc1)P(=O)(Oc1ccccc1)Oc1ccccc1` (centres unmarked) [Compound 7g, Diphenyl 1-(methylsulfonylamino)-2-(4-guanidinophenyl)-ethanephosphonate], for which the IC50 at thrombin is about 125 µM; at tPA, 8 ± 2 µM; against FXa, about 250 µM; at plasmin (setting [6]), 11 ± 1 µM.
In the case of `N=C(N)c1ccc(C(NC(=O)OCc2ccccc2)P(=O)(Oc2ccccc2)Oc2ccccc2)cc1` (centres unmarked) [Compound 8a, Diphenyl 1-(N-benzyloxycarbonylamino)-1-(4-amidinophenyl)methanephosphonate], the IC50 was determined as 0.288 ± 0.006 µM on thrombin (setting [4]), 66 ± 7 µM at tPA, 6 ± 0.2 µM at FXa (setting [5]) and 3.6 ± 0.4 µM at plasmin (setting [6]).
As to `N=C(N)c1ccc(CC(NC(=O)OCc2ccccc2)P(=O)(Oc2ccccc2)Oc2ccccc2)cc1` (centres unmarked) [Compound 8b, Diphenyl 1-(N-benzyloxycarbonylamino)-2-(4-amidinophenyl)ethanephosphonate], the half-maximal inhibitory concentration (IC50) at thrombin (setting [4]) was 20 ± 2 µM; against tPA, 4 ± 2 µM; on plasmin (setting [6]), 1.2 ± 0.1 µM. Moreover, the inhibition at 250 µM on FXa was found to be 65%.
`CCC(NC(=O)OCc1ccccc1)(c1ccc(C(=N)N)cc1)P(=O)(Oc1ccccc1)Oc1ccccc1` (centres unmarked) [Compound 8c, Diphenyl 1-(N-benzyloxycarbonylamino)-1-(4-amidinophenyl)propanephosphonate]: the half-inhibitory concentration (IC50) on thrombin (setting [4]) is 17 ± 2 µM; on tPA, 68 ± 9 µM; at FXa (setting [5]), 13.7 ± 1.3 µM; against trypsin, 3.5 ± 0.2 µM; on plasmin (setting [6]) it was 6.2 ± 0.4 µM.
As to `CC(=O)Nc1ccc(OP(=O)(Oc2ccc(NC(C)=O)cc2)C(Cc2ccc(NC(=N)N)cc2)NC(=O)OCc2ccccc2)cc1` (centres unmarked) [Compound 9b, Di-(4-acetamidophenyl) 1-(benzyloxycarbonylamino)-2-[(4-guanidino)phenyl]ethanephosphonate], the IC50 on thrombin (setting [4]) was 0.39 ± 0.03 µM; against tPA, 7 ± 1 µM; on uPA [1] (setting [7]), 4.2 ± 0.9 nM; at FXa (setting [5]), 100 ± 24 µM; at plasmin (setting [6]), 0.9 ± 0.2 µM.
With `CC(=O)Nc1ccc(OP(=O)(Oc2ccc(NC(C)=O)cc2)C(Cc2ccc(NC(=N)N)cc2)NS(C)(=O)=O)cc1` (centres unmarked) [Compound 9c, Di-(4-acetamidophenyl) 1-(methylsulfonylamino)-2-(4-guanidinophenyl)-ethanephosphonate], the IC50 came out at 2.35 ± 0.06 µM on thrombin (setting [4]), 3.7 ± 0.4 µM against tPA, 3.5 ± 0.5 nM at uPA [1] (setting [7]) and 2 ± 0.4 µM at plasmin (setting [6]). Also, the inhibition at 250 µM at FXa turned out to be 55%.
As for `N=C(N)Nc1ccc(CC(N)P(=O)(Oc2ccccc2)Oc2ccccc2)cc1` (centres unmarked) [Compound 34d, Diphenyl 1-amino-2-(4-guanidinophenyl)ethylphosphonate], the IC50 on uPA [1] (setting [7]) came out at 1600 ± 130 nM.
`COC(=O)NC(Cc1ccc(NC(=N)N)cc1)P(=O)(Oc1ccccc1)Oc1ccccc1` (centres unmarked) [Compound 35a, Methyl 1-(diphenoxyphosphoryl)-2-(4-guanidinophenyl)ethylcarbamate]: the 50% inhibitory concentration (IC50) at thrombin is 16.6 ± 2.3 µM; against tPA, 23 ± 6 µM; at uPA [1] (setting [7]) it was 3.1 ± 0.5 nM; on plasmin, 12.8 ± 2 µM. In addition, at uPA [2], the “kapp (M^−1 · s^−1) uPA” value was found to be 62000 M⁻¹ s⁻¹.
Turning to `CCOC(=O)NC(Cc1ccc(NC(=N)N)cc1)P(=O)(Oc1ccccc1)Oc1ccccc1` (centres unmarked) [Compound 35c, Ethyl 1-(diphenoxyphosphoryl)-2-(4-guanidinophenyl)ethylcarbamate], the 50% inhibitory concentration (IC50) amounted to 3.8 ± 0.2 µM on thrombin (setting [4]), 57 ± 14 µM at tPA, 8 ± 3 nM at uPA [1] (setting [7]) and 16 ± 3 µM at plasmin (setting [6]). Moreover, at uPA [2], the “kapp (M^−1 · s^−1) uPA” value was 40000 M⁻¹ s⁻¹.
`CNC(=O)NC(Cc1ccc(NC(=N)N)cc1)P(=O)(Oc1ccccc1)Oc1ccccc1` (centres unmarked) [Compound 39a, Diphenyl 2-(4-guanidinophenyl)-1-(3-methylureido)ethylphosphonate] registered a half-inhibitory concentration (IC50) against uPA [1] of 101000 ± 6800 nM.
Still for that read-out and setting: the same measure for `N=C(N)Nc1ccc(CC(NC(=O)NCc2ccccc2)P(=O)(Oc2ccccc2)Oc2ccccc2)cc1` (centres unmarked) [Compound 39b, Diphenyl 1-(3-benzylureido)-2-(4-guanidinophenyl)ethylphosphonate]: 43900 ± 3900 nM.
Take `CC(=O)NC(Cc1ccc(NC(=N)N)cc1)P(=O)(Oc1ccccc1)Oc1ccccc1` (centres unmarked) [Compound 41, Diphenyl 1-acetamido-2-(4-guanidinophenyl)ethylphosphonate]: the half-maximal inhibitory concentration (IC50) at thrombin (setting [4]) turned out to be 32.2 ± 1.4 µM; against uPA [1], 9.9 ± 0.8 nM; at plasmin (setting [6]), 57 ± 1.3 µM.
In the case of “Diphenyl 1-(naphthalenesulfonylamino)-2-(4-guanidinophenyl)-ethanephosphonate [Compound 7e]”, the IC50 on thrombin (setting [4]) was 8.1 ± 0.8 µM; at tPA, 44 ± 10 µM; at FXa (setting [5]), 27 ± 2 µM; against trypsin, 0.28 ± 0.05 µM; on plasmin (setting [6]), 1.2 ± 0.1 µM.
Consider Z-D-Ser-Ala-Arginal, for which, at uPA [3], the IC50 is 0.019 µM and the “selectivity ratio toward tPA” value is reported as “more than 130”.
